This note sets out measurements from ChEMBL document CHEMBL3507680, “University of Dundee, Gates Library screen for HepG2 cell viability”.

This series is described as follows: Human HepG2 cell viability assay in 384 well format. It is filed as toxicity, cell-based. Details: dose 125 nL, time 70.5 hour; concentration not given beside the values. As to conditions: HepG2 cells, read-out: Inhibition.
Regarding `CCCc1noc(C2CCCCN2C(=O)C2CCCC2)n1` (stereo not drawn), the cytotoxicity at 70.5 h was determined as 32.2%.
In the case of `c1ccc2c(N3CCSCC3)cnnc2c1`, the cytotoxicity at 70.5 h is -3.97%.
As to `CC1(C)CC(N2Cc3nc(N4CCCC4)ncc3C2=O)CC(C)(C)N1`, the cytotoxicity at 70.5 h is -13.5%.
Consider `CCS(=O)(=O)N1CCCCC1c1nc(CC(C)C)no1` (stereo not drawn), for which the cytotoxicity at 70.5 h was -8.14%.
Regarding `CCc1noc(C2CCCCN2C(=O)c2sccc2C)n1` (stereo not drawn), the cytotoxicity at 70.5 h turned out to be 12.2%.
As to `CCCc1noc(C2CCN(C(=O)CCn3nc(C)cc3C)CC2)n1`, the cytotoxicity at 70.5 h was -7%.
In the case of `Cc1nn(C)c2cn(CC(=O)NC3CCSCC3)nc12`, the cytotoxicity at 70.5 h is -0.476%.
Then `COCCNC(=O)Cn1cc2c(n1)c(C)nn2C`, with -9.77%.
As to `Cc1cc2[nH]c(O)nc2cc1NCc1ccccc1`, the cytotoxicity at 70.5 h was -12.7%.
Take `CC1CCC(N2Cc3nc(N)ncc3C2=O)CC1` (stereo not drawn): the cytotoxicity at 70.5 h was -12.4%.
In the case of `CCc1noc(C2CCCCN2C(=O)c2cc(C)oc2C)n1` (stereo not drawn), the cytotoxicity at 70.5 h was 11.6%.
With `Cc1ccc(CN(C)CC2(O)CCCN(C)C2)o1` (stereo not drawn) the figure was -2.94%; with `CCn1nc(C)c2nn(CC(=O)NC3CCSCC3)cc21`, 6.6%.
For `Cc1nc2[nH]cnc(Nc3ccn(C)n3)c-2n1`, the cytotoxicity at 70.5 h was -4.89%.
Then `Cn1cc(N2Cc3nc(N4CCOCC4)ncc3C2=O)cn1`, with -6.6%; and `CCn1cc(N2Cc3nc(N4CCCC4)ncc3C2=O)cn1`, with 0.0553%; and `O=C(NCCCn1cccn1)c1nnc2ccccc2n1`, with 2.8%.
As to `CCn1nc(C)c(CNC(=O)c2nnc3ccc(OC)cc3n2)c1C`, the cytotoxicity at 70.5 h is -3.67%.
With `COc1ccc2nnc(C(=O)NCC3CCCC3)nc2c1` the figure was -4.54%.
Take `C=CNC(=O)c1nnc2ccc(N3CCOCC3)cc2n1`: the cytotoxicity at 70.5 h was -10.8%.
As to `CN(C)c1ncc2c(n1)CN(C1CC(C)(C)NC(C)(C)C1)C2=O`, the cytotoxicity at 70.5 h is -6.77%.
Turning to `CC1CCN(c2ncc3c(n2)CN(Cc2cccc(F)c2)C3=O)CC1`, the cytotoxicity at 70.5 h is -0.149%.
Consider `CCn1nc(C)c(NC(=O)c2cc(NC(=O)C3CC3)n(C)n2)c1C`, for which the cytotoxicity at 70.5 h was -5.29%.
In the case of `Cc1ccc(CNC(=O)c2cc(NC(=O)C3CC3)n(C)n2)o1`, the cytotoxicity at 70.5 h is -7.15%.
In the case of `CCn1nccc1CNc1nc(N)nc2c1nc(C)n2C`, the cytotoxicity at 70.5 h was 6.56%.
With `Cc1nn(C)c2cn(C(C)C(=O)NCc3ccccn3)nc12` (stereo not drawn), the cytotoxicity at 70.5 h was -11.2%.
With `CC1CCN(C(=O)c2cc(NC(=O)c3ccccc3)n(C)n2)CC1` the figure was -14.1%; with `Cn1nc(C(=O)N2CCCCCC2)cc1NC(=O)c1ccccc1`, -9.93%.
Then `CC(=O)OCc1ccc(CN2CCCCCC2c2cc(C)no2)o1` (stereo not drawn), with 24.7%; and `Cn1cccc1C(=O)N1CCCCC1c1ccn2ccnc2n1` (stereo not drawn), with -1.33%.
On to `CCc1noc(CCC(=O)N[C@@H]2CC[C@@H](n3ccnc3C)[C@@H]2O)n1`, for which the cytotoxicity at 70.5 h is -1.14%.
`CCc1noc(CCC(=O)N[C@@H]2CC[C@@H](n3ccnc3)[C@@H]2O)n1`: the cytotoxicity at 70.5 h was -8.61%.
`COc1ccccc1Oc1cncc(C2CCCN(CC(N)=O)C2)n1` (stereo not drawn): the cytotoxicity at 70.5 h worked out at 11.9%.
With `CC1(C2CCN(CC(N)=O)CC2)CN(Cc2ccccc2)C(=O)CO1` (stereo not drawn), the cytotoxicity at 70.5 h was -6.63%.
Consider `CNC(=O)CN1CCC2(CC1)C[C@@H](O)[C@H](c1ccccc1)NC2=O`, for which the cytotoxicity at 70.5 h was -4.55%.
As for `CC(C)N1CCC2(CC1)C[C@@H](O)[C@H](c1ccccc1)NC2=O`, the cytotoxicity at 70.5 h was determined as 9.43%.
Consider `C[C@]1(O)CCN(Cc2ncccc2F)C[C@@H]1Oc1cccc(F)c1`, for which the cytotoxicity at 70.5 h was -3.05%.
Take `O[C@@H]1CN(Cc2cnccn2)C[C@H]1Oc1ccccc1`: the cytotoxicity at 70.5 h was -6.26%.
With `Cc1nccc(C2CCCCN2Cc2ccccc2)n1` (stereo not drawn), the cytotoxicity at 70.5 h was -5%.
Then `CNC(=O)c1cn[nH]c1C1CCN(Cc2ccccc2OC)C1` (stereo not drawn), with -8.12%; and `Cc1noc(C)c1-c1cccc(C2CCCNC2)n1` (stereo not drawn), with 2.18%.
With `Oc1nc(N2CCCC2)nc2c1CCN(Cc1ccsc1)CC2` the figure was -8.09%.
As to `Cn1cc(C(=O)N2CCCC(Cc3cncc4ccccc34)C2)cn1` (stereo not drawn), the cytotoxicity at 70.5 h was -1.78%.
Take `Cc1cc(C)nc(C2CCN(C(=O)CCn3nnc4ccccc43)C2)n1` (stereo not drawn): the cytotoxicity at 70.5 h was -6.12%.
With `CCCn1nccc1-c1cc(C2CCN(S(C)(=O)=O)CC2)ccn1` the figure was -6.09%.
With `Cc1noc(C)c1-c1cc(C2CCNCC2)ccn1` the figure was 3.08%; with `NC(=O)c1cc2c(nc1N)CCN(C(=O)C1CCCCC1)C2`, 7.07%; with `CCc1nccn1-c1nccnc1C1CCN(C(=O)COC)CC1`, 14.8%.
`Cc1cc(N)nc(C2(C)CCCN2C(=O)Cc2ccc(F)cc2)n1` (stereo not drawn): the cytotoxicity at 70.5 h was -8.7%.
Then `CCC(=O)N1CCC(c2nc3c(c(NC)n2)CN(C)CC3)C1` (stereo not drawn), with -9.93%.
As for `Cc1ncc(CN2CCOC(c3ccc(-c4ccccc4F)cn3)C2)s1` (stereo not drawn), the cytotoxicity at 70.5 h amounted to 49.2%.
Regarding `Cc1noc(C)c1-c1ccc(C2CCCN2C(=O)c2ccncn2)nc1` (stereo not drawn), the cytotoxicity at 70.5 h was determined as 27.1%.
Then `Cc1cccnc1Nc1nccc(C2CN(CC(N)=O)C2)n1`, with -3.23%.
Consider `NC(=O)CN1CCCC(Cc2ccc(N3CCOCC3)nn2)C1` (stereo not drawn), for which the cytotoxicity at 70.5 h was -0.993%.
With `Cc1cccc(C2CCN(S(=O)(=O)c3cn(C)cn3)CC2)n1` the figure was -8.21%; with `CN(C)C(=O)CN1CCCC(Cc2ccc(N3CCCC3)nn2)C1` (stereo not drawn), -9.12%; with `COCCn1cnnc1C1CCCN(C(C)C)C1` (stereo not drawn), 17.1%.
Consider `c1ccc(N2CCOC(Cc3cccnc3)C2)cc1` (stereo not drawn), for which the cytotoxicity at 70.5 h is -7.14%.
For `Cc1cc(N2CCCC2c2nc(C)cc(CCC(=O)O)n2)ncn1` (stereo not drawn), the cytotoxicity at 70.5 h was -9.37%.
Regarding `Cc1ccnc(C2CCN(S(=O)(=O)c3cn(C)cn3)CC2)n1`, the cytotoxicity at 70.5 h was -9.62%.
Turning to `CN(C)C(=O)c1cn[nH]c1C1(C)CCCN(Cc2ccccn2)C1` (stereo not drawn), the cytotoxicity at 70.5 h was -1.05%.
For `Nc1nccnc1C1CN(C(=O)c2ccc3c(c2)OCO3)CCO1` (stereo not drawn), the cytotoxicity at 70.5 h was -13.9%.
Consider `O=C(O)COCC(=O)NC1CC2(CCCCC2)Oc2ccccc21` (stereo not drawn), for which the cytotoxicity at 70.5 h worked out at 18.3%.
Consider `Cc1noc(C)c1-c1nc(N(C)C)ncc1-c1cnccn1`, for which the cytotoxicity at 70.5 h is -5.02%.
With `Cc1noc(C)c1-c1nc(NCCN(C)C)ncc1-c1cnccn1`, the cytotoxicity at 70.5 h is -6.59%.
Consider `c1cncc(CC2CN(c3cccnc3)CCO2)c1` (stereo not drawn), for which the cytotoxicity at 70.5 h is -6.99%.
Consider `CN1CCN(C(=O)C2CCN(c3cccnn3)C2)CC1` (stereo not drawn), for which the cytotoxicity at 70.5 h was -6.3%.
In the case of `CC(=O)N1CCN(C(=O)C2CCN(c3cccnn3)C2)CC1` (stereo not drawn), the cytotoxicity at 70.5 h was -0.877%.
In the case of `CNC(=O)c1ccc(C2CCCN(C(=O)c3sc(C)nc3C)C2)nc1` (stereo not drawn), the cytotoxicity at 70.5 h came out at 2.08%.
For the molecule `CC(=O)N1CCc2nc(C3CCN(c4ncccn4)C3)ncc2C1` (stereo not drawn), the cytotoxicity at 70.5 h is -0.395%.
Then `CCCc1ncc(CNC2(c3ccc(Cl)cc3)CC2)cn1`, with -4.1%; and `CCc1ccccc1Nc1noc2c1CN(C(=O)CNC(C)=O)CC2`, with 6.37%; and `Cc1nc(C2CCCN2C(=O)Cc2ccc3c(c2)OCO3)nc(O)c1C` (stereo not drawn), with -5.28%.
With `CCN(Cc1nc(-c2ccco2)no1)Cc1cccc2c1OCO2` the figure was -3.24%; with `COC(C)c1cccc(NCc2cccc(O)c2)c1` (stereo not drawn), -4%.
With `O=C(c1ccccc1F)N(CCCO)S(=O)(=O)c1cccs1` the figure was -9.23%; with `Cc1cc(C)n(CC2CCCN2Cc2ccc(F)cc2C#N)n1` (stereo not drawn), -4.46%.
For the molecule `Cc1ccc(N2CCC(NC(C)c3cccs3)CC2)nc1` (stereo not drawn), the cytotoxicity at 70.5 h was -2.5%.
For `CC(Cc1ccco1)NC(=O)NCc1ncnn1C` (stereo not drawn), the cytotoxicity at 70.5 h turned out to be 3.51%.
Consider `COc1cc(CNc2nc(C3CC3)no2)cc(OC)c1OC`, for which the cytotoxicity at 70.5 h turned out to be 6.45%.
On to `CCc1noc(CN2CCN(C(=O)Cc3ccc(F)cc3)CC2)n1`, for which the cytotoxicity at 70.5 h is -5.71%.
For `Cn1c(CS(=O)(=O)Cc2cccc(Cl)c2)cc(=O)n(C)c1=O`, the cytotoxicity at 70.5 h was -4.54%.
With `COc1cc(CO)ccc1OCc1nc(C2CC2)no1` the figure was -7.52%; with `Cc1noc(C2CCCN(C(=O)c3cc(Cl)c(Cl)n3C)C2)n1` (stereo not drawn), -6.05%; with `CCn1cnnc1CNC(=O)NCC(O)c1ccc(OC)cc1` (stereo not drawn), -4.35%.
`Cc1noc(C2CCCN(C(=O)c3scnc3Cl)C2)n1` (stereo not drawn): the cytotoxicity at 70.5 h came out at 13%.
On to `O=C(CCCc1nc2ccccc2[nH]1)N1CCCC1c1ccccn1` (stereo not drawn), for which the cytotoxicity at 70.5 h came to 0.793%.
As to `O=C(Cc1cccc(O)c1)NCCNc1nccc(C(F)(F)F)n1`, the cytotoxicity at 70.5 h was -7.29%.
Turning to `Cc1nc(CC(=O)NCCNc2nccc(C(F)(F)F)n2)cs1`, the cytotoxicity at 70.5 h is -6.39%.
Then `CC(C)(C)n1cc(C#N)cc1NC(=O)CCNC(=O)c1ccco1`, with 11.3%; and `CC(C)COc1cncc(NCCc2nnc3ccccn23)n1`, with -4.15%; and `CN(C)c1ncc(NC(=O)c2cccc(Nc3cnn(C)c3)c2)cn1`, with 2.52%.
Regarding `COc1cccc(C(CO)NC(=O)Cc2cccc(C)c2)c1` (stereo not drawn), the cytotoxicity at 70.5 h is -4.94%.
For the molecule `COc1ccncc1NCc1cscn1`, the cytotoxicity at 70.5 h was -0.709%.
Consider `Cc1noc(C2CCCN(C(=O)c3cccc(Cl)c3)C2)n1` (stereo not drawn), for which the cytotoxicity at 70.5 h was -0.713%.
With `O=c1cc(CN(CCO)C2CC2)nc2ccccn12` the figure was -3.82%; with `COc1ccc(CNc2nc(C3CC3)no2)cc1OC`, -1.13%.
With `NC(=O)c1ccc(C2CCCNC2)nc1` (stereo not drawn), the cytotoxicity at 70.5 h is -4.69%.
Regarding `Cc1ccc(-c2ccc(CC3NCCN(C)C3=O)cc2)cc1` (stereo not drawn), the cytotoxicity at 70.5 h was 20.9%.
For the molecule `c1cn(-c2cnc(C3CCCNC3)cn2)cn1` (stereo not drawn), the cytotoxicity at 70.5 h amounted to 22.8%.
`CN1CCNC(Cc2ccc(-c3ccncc3)cc2)C1=O` (stereo not drawn): the cytotoxicity at 70.5 h was -5.04%.
`c1cn(-c2cnc(C3CCNCC3)cn2)cn1`: the cytotoxicity at 70.5 h was -10.7%.
For `O=C(CN1CCC(c2cc(=O)n3c(n2)CCCCC3)C1)N1CCCCC1` (stereo not drawn), the cytotoxicity at 70.5 h was -8.93%.
